Experimental data taken from paper PMC12669040, “Tumour-specific STING agonist synthesis via a two-component prodrug system” (Nature Chemistry, 2025).
Several values for one entry are separate records, joined by “and”; a condition that tells them apart may be missing. Identical values can stand only once.

Legend:
[1] = Colorimetric alkylation rate constant assay with TNB^2− as non-specific thiol; type: physicochemical; design: second-order: unit not given here; conditions: for remaining [B]: in µM
[2] = Colorimetric alkylation rate constant assay with thiol N1; type: physicochemical; conditions: for remaining [A]: N1 from calibration curve (N1 in uM); for remaining [A] / remaining [B]: in µM
[3] = Time 2891 sec, [B]0 = 250, Replicates 1-3
[4] = Time 3071 sec, [B]0 = 250, Replicates 1-3
[5] = Time 3252 sec, [B]0 = 250, Replicates 1-3
[6] = Time 3433 sec, [B]0 = 250, Replicates 1-3
[7] = Time 3613 sec, [B]0 = 250, Replicates 1-3

## O=C(CCl)Nc1ccccc1C(=O)O [Compound C5]
[1]; Replicate 1, 723 sec, [B]0 = 250
  remaining [B]: 246.309
[1]; Replicate 1, 903 sec, [B]0 = 250
  remaining [B]: 246.195
[1]; Replicate 1, 1084 sec, [B]0 = 250
  remaining [B]: 246.107
[1]; Replicate 1, 1265 sec, [B]0 = 250
  remaining [B]: 246.422
[1]; Replicate 1, 1445 sec, [B]0 = 250
  remaining [B]: 246.548
[1]; Replicate 1, 1626 sec, [B]0 = 250
  remaining [B]: 246.346
[1]; Replicate 1, 1806 sec, [B]0 = 250
  remaining [B]: 245.931
[1]; Replicate 1, 1988 sec, [B]0 = 250
  remaining [B]: 245.767
[1]; Replicate 1, 2168 sec, [B]0 = 250
  remaining [B]: 245.616
[1]; Replicate 1, 2349 sec, [B]0 = 250
  remaining [B]: 245.553
[1]; Replicate 1, 2530 sec, [B]0 = 250
  remaining [B]: 245.464
[1]; Replicate 1, 2710 sec, [B]0 = 250
  remaining [B]: 245.427
[1]; Replicate 2, 542 sec, [B]0=250
  remaining [B]: 245.747
[1]; Replicate 2, 723 sec, [B]0=250
  remaining [B]: 245.533
[1]; Replicate 2, 903 sec, [B]0=250
  remaining [B]: 245.445
[1]; Replicate 2, 1084 sec, [B]0=250
  remaining [B]: 245.382
[1]; Replicate 2, 1265 sec, [B]0=250
  remaining [B]: 245.218
[1]; Replicate 2, 1445 sec, [B]0=250
  remaining [B]: 245.168
[1]; Replicate 2, 1626 sec, [B]0=250
  remaining [B]: 245.067
[1]; Replicate 2, 1806 sec, [B]0=250
  remaining [B]: 244.991
[1]; Replicate 2, 1988 sec, [B]0=250
  remaining [B]: 244.928
[1]; Replicate 2, 2168 sec, [B]0=250
  remaining [B]: 244.827
[1]; Replicate 2, 2349 sec, [B]0=250
  remaining [B]: 244.739
[1]; Replicate 2, 2530 sec, [B]0=250
  remaining [B]: 244.676
[1]; Replicate 2, 2710 sec, [B]0=250
  remaining [B]: 244.563
[1]; Replicate 3, 723 sec, [B]0=250
  remaining [B]: 245.666
[1]; Replicate 3, 903 sec, [B]0=250
  remaining [B]: 245.565
[1]; Replicate 3, 1084 sec, [B]0=250
  remaining [B]: 245.427
[1]; Replicate 3, 1265 sec, [B]0=250
  remaining [B]: 245.389
[1]; Replicate 3, 1445 sec, [B]0=250
  remaining [B]: 245.313
[1]; Replicate 3, 1626 sec, [B]0=250
  remaining [B]: 245.149
[1]; Replicate 3, 1806 sec, [B]0=250
  remaining [B]: 245.137
[1]; Replicate 3, 1988 sec, [B]0=250
  remaining [B]: 245.036
[1]; Replicate 3, 2168 sec, [B]0=250
  remaining [B]: 244.986
[1]; Replicate 3, 2349 sec, [B]0=250
  remaining [B]: 244.872
[1]; Replicate 3, 2530 sec, [B]0=250
  remaining [B]: 244.809
[1]; Replicate 3, 2710 sec, [B]0=250
  remaining [B]: 244.62
[1]; [3]
  second-order: 0.0002299 and 0.0002236 and 0.0001928
  remaining [B]: 244.62 and 245.338 and 244.475
[1]; [4]
  second-order: 0.0002338 and 0.0002269 and 0.0001976
  remaining [B]: 244.544 and 245.225 and 244.386
[1]; [5]
  second-order: 0.0002365 and 0.0002296 and 0.0001987
  remaining [B]: 244.481 and 245.2 and 244.323
[1]; [6]
  second-order: 0.0002403 and 0.0002356 and 0.0002052
  remaining [B]: 244.343 and 245.049 and 244.235
[1]; [7]
  second-order: 0.0002452 and 0.0002384 and 0.0002063
  remaining [B]: 244.28
[1]; Time 3794 sec, [B]0 = 250, Replicates 1-3
  second-order: 0.0002474 and 0.0002417 and 0.0002117
[1]; Time 3974 sec, [B]0 = 250, Replicates 1-3
  second-order: 0.0002513 and 0.0002455 and 0.0002139
[1]; Time 4155 sec, [B]0 = 250, Replicates 1-3
  second-order: 0.0002546 and 0.0002504 and 0.0002193
[1]; Time 4336 sec, [B]0 = 250, Replicates 1-3
  second-order: 0.000259 and 0.0002537 and 0.000222
[1]; Time 4516 sec, [B]0 = 250, Replicates 1-3
  second-order: 0.0002623 and 0.0002543 and 0.0002291
[1]; Time 4697 sec, [B]0 = 250, Replicates 1-3
  second-order: 0.0002656 and 0.0002598 and 0.0002275
[1]; Time 4878 sec, [B]0 = 250, Replicates 1-3
  second-order: 0.0002689 and 0.0002614 and 0.0002307
[1]; Time 5058 sec, [B]0 = 250, Replicates 1-3
  second-order: 0.0002728 and 0.000267 and 0.0002367
[1]; Time 5239 sec, [B]0 = 250, Replicates 1-3
  second-order: 0.0002767 and 0.0002692 and 0.0002406
[1]; Time 5419 sec, [B]0 = 250, Replicates 1-3
  second-order: 0.0002789 and 0.0002725 and 0.0002433
[1]; Time 5600 sec, [B]0 = 250, Replicates 1-3
  second-order: 0.0002833 and 0.0002764 and 0.0002471
[1]; Time 5781 sec, [B]0 = 250, Replicates 1-3
  second-order: 0.0002878 and 0.0002803 and 0.0002499
[1]; Time 5961 sec, [B]0 = 250, Replicates 1-3
  second-order: 0.0002906 and 0.000283 and 0.0002554
[2]; Replicate 1, time 576 sec
  remaining [A]: 85.1676
[2]; Replicate 1, time 576 sec, [B]0 = 250
  remaining [B]: 231.048
[2]; Replicate 1, time 576 sec, second-order plot value
  second-order: 0.0008369
[2]; Replicate 1, time 606 sec
  remaining [A]: 84.6546
[2]; Replicate 1, time 606 sec, [B]0 = 250
  remaining [B]: 230.535
[2]; Replicate 1, time 606 sec, second-order plot value
  second-order: 0.0008631
[2]; Replicate 2, time 576 sec
  remaining [A]: 85.8231
[2]; Replicate 2, time 576 sec, [B]0=250
  remaining [B]: 232.681
[2]; Replicate 2, time 576 sec, second-order plot value
  second-order: 0.0007628
[2]; Replicate 2, time 606 sec
  remaining [A]: 85.3129
[2]; Replicate 2, time 606 sec, [B]0=250
  remaining [B]: 232.171
[2]; Replicate 2, time 606 sec, second-order plot value
  second-order: 0.0007885
[2]; Replicate 3, time 576 sec
  remaining [A]: 89.9918
[2]; Replicate 3, time 576 sec, [B]0=250
  remaining [B]: 235.444
[2]; Replicate 3, time 576 sec, second-order plot value
  second-order: 0.0006183
[2]; Replicate 3, time 606 sec
  remaining [A]: 89.4236
[2]; Replicate 3, time 606 sec, [B]0=250
  remaining [B]: 234.876
[2]; Replicate 3, time 606 sec, second-order plot value
  second-order: 0.0006452
[2]; time 0 sec, [B]0 = 250, replicates 1-3
  remaining [B]: 249.513 and 244.642 and 245.947
[2]; time 0 sec, replicates 1-3
  second-order: 0.0001617 and 1.87e-5 and 0.0002136
[2]; time 30 sec, [B]0 = 250, replicates 1-3
  remaining [B]: 248.485 and 243.217 and 245.21
[2]; time 30 sec, replicates 1-3
  second-order: 0.0001921 and 5.857e-5 and 0.0002732
[2]; time 60 sec, [B]0 = 250, replicates 1-3
  remaining [B]: 247.619 and 242.647 and 243.934
[2]; time 60 sec, replicates 1-3
  second-order: 0.0002455 and 9.259e-5 and 0.0002974
[2]; time 91 sec, [B]0 = 250, replicates 1-3
  remaining [B]: 246.645 and 241.963 and 243.197
[2]; time 91 sec, replicates 1-3
  second-order: 0.0002767 and 0.0001313 and 0.0003267
[2]; time 121 sec, [B]0 = 250, replicates 1-3
  remaining [B]: 245.942 and 241.222 and 242.404
[2]; time 121 sec, replicates 1-3
  second-order: 0.0003108 and 0.0001597 and 0.0003587
[2]; time 151 sec, [B]0 = 250, replicates 1-3
  remaining [B]: 245.265 and 240.31 and 241.667
[2]; time 151 sec, replicates 1-3
  second-order: 0.0003428 and 0.0001872 and 0.0003986
[2]; time 182 sec, [B]0 = 250, replicates 1-3
  remaining [B]: 244.291 and 239.712 and 241.043
[2]; time 182 sec, replicates 1-3
  second-order: 0.0003702 and 0.0002272 and 0.0004251
[2]; time 212 sec, [B]0 = 250, replicates 1-3
  remaining [B]: 243.723 and 239.142 and 240.505
[2]; time 212 sec, replicates 1-3
  second-order: 0.000394 and 0.0002509 and 0.0004506
[2]; time 242 sec, [B]0 = 250, replicates 1-3
  remaining [B]: 242.993 and 238.344 and 239.824
[2]; time 242 sec, replicates 1-3
  second-order: 0.0004243 and 0.0002815 and 0.0004866
[2]; time 273 sec, [B]0 = 250, replicates 1-3
  remaining [B]: 242.1 and 237.717 and 239.002
[2]; time 273 sec, replicates 1-3
  second-order: 0.0004614 and 0.0003194 and 0.0005152
[2]; time 303 sec, [B]0 = 250, replicates 1-3
  remaining [B]: 241.397 and 237.004 and 238.492
[2]; time 303 sec, replicates 1-3
  second-order: 0.0004847 and 0.0003496 and 0.000548
[2]; time 333 sec, [B]0 = 250, replicates 1-3
  remaining [B]: 240.774 and 236.377 and 237.897
[2]; time 333 sec, replicates 1-3
  second-order: 0.000512 and 0.0003766 and 0.0005771
[2]; time 364 sec, [B]0 = 250, replicates 1-3
  remaining [B]: 239.963 and 235.665 and 237.16
[2]; time 364 sec, replicates 1-3
  second-order: 0.0005463 and 0.0004122 and 0.0006106
[2]; time 394 sec, [B]0 = 250, replicates 1-3
  remaining [B]: 239.367 and 234.981 and 236.423
[2]; time 394 sec, replicates 1-3
  second-order: 0.0005809 and 0.0004386 and 0.0006431
[2]; time 424 sec, [B]0 = 250, replicates 1-3
  remaining [B]: 238.745 and 234.154 and 235.799
[2]; time 424 sec, replicates 1-3
  second-order: 0.0006105 and 0.0004664 and 0.0006829
[2]; time 454 sec, [B]0 = 250, replicates 1-3
  remaining [B]: 238.204 and 233.641 and 235.374
[2]; time 454 sec, replicates 1-3
  second-order: 0.0006308 and 0.0004908 and 0.0007078
[2]; time 485 sec, [B]0 = 250, replicates 1-3
  remaining [B]: 237.419 and 232.929 and 234.552
[2]; time 485 sec, replicates 1-3
  second-order: 0.0006705 and 0.0005265 and 0.0007427
[2]; time 515 sec, [B]0 = 250, replicates 1-3
  remaining [B]: 236.662 and 232.416 and 234.155
[2]; time 515 sec, replicates 1-3
  second-order: 0.0006899 and 0.0005614 and 0.0007681
[2]; time 545 sec, [B]0 = 250, replicates 1-3
  remaining [B]: 236.148 and 231.703 and 233.702
[2]; time 545 sec, replicates 1-3
  second-order: 0.0007121 and 0.0005853 and 0.0008038
